Test results: ChEMBL document CHEMBL4393657, “Tetrazole hybrids and their antifungal activities” (2019)
Values after ≈ are worked out from the molar mass of the structure shown.

Tests used:
Assay type in all cases: functional
Cryptococcus neoformans = experiment: Antifungal activity against Cryptococcus neoformans LA314 assessed as reduction in fungal cell growth incubated for 48 hrs by broth microdilution method; settings: LA314, 48 h
Nakaseomyces glabratus = experiment: Antifungal activity against Candida glabrata assessed as reduction in fungal cell growth incubated for 48 hrs by broth microdilution method
Candida parapsilosis = experiment: Antifungal activity against Candida parapsilosis ATCC 22019 assessed as reduction in fungal cell growth incubated for 48 hrs by broth microdilution method; settings: Lodderomyces parapsilosis, ATCC 22019, 48 h
Pichia kudriavzevii = experiment: Antifungal activity against Candida krusei assessed as reduction in fungal cell growth incubated for 48 hrs by broth microdilution method
Candida albicans [1] = experiment: Antifungal activity against Candida albicans assessed as reduction in fungal cell growth incubated for 48 hrs by broth microdilution method
Candida tropicalis = experiment: Antifungal activity against Candida tropicalis assessed as reduction in fungal cell growth incubated for 48 hrs by broth microdilution method
Aspergillus niger = experiment: Antifungal activity against Aspergillus niger assessed as reduction in fungal cell growth incubated for 72 hrs by broth microdilution method
Candida albicans [2] = experiment: Antifungal activity against Candida albicans assessed as reduction in fungal cell growth incubated for 24 and 72 hrs by cup plate method
Aspergillus flavus = experiment: Antifungal activity against Aspergillus flavus assessed as reduction in fungal cell growth incubated for 24 and 72 hrs by cup plate method
Fusarium oxysporum = experiment: Antifungal activity against Fusarium oxysporum assessed as reduction in fungal cell growth incubated for 24 and 72 hrs by cup plate method

| MIC (Cryptococcus neoformans) | MIC (Nakaseomyces glabratus) | MIC (Candida parapsilosis) | MIC (Pichia kudriavzevii) | MIC (Candida albicans [1]) | MIC (Candida tropicalis) | MIC (Aspergillus niger) | MIC (Candida albicans [2]) | MIC (Aspergillus flavus) | MIC (Fusarium oxysporum) | SMILES |
| --- | --- | --- | --- | --- | --- | --- | --- | --- | --- | --- |
| 0.12 to 16 µg/mL (≈ 0.235 to 31.4 µM) | 0.12 to 16 µg/mL (≈ 0.235 to 31.4 µM) | 0.12 to 16 µg/mL (≈ 0.235 to 31.4 µM) | 0.12 to 16 µg/mL (≈ 0.235 to 31.4 µM) | 0.12 to 16 µg/mL (≈ 0.235 to 31.4 µM) | 0.12 to 16 µg/mL (≈ 0.235 to 31.4 µM) | 0.12 to 16 µg/mL (≈ 0.235 to 31.4 µM) | – | – | – | C[C@H](n1nnnc1CCN1CCN(c2ccccc2)CC1)[C@](O)(Cn1cncn1)c1ccc(F)cc1F |
| 0.25 to 16 µg/mL (≈ 0.417 to 26.7 µM) | 0.25 to 16 µg/mL (≈ 0.417 to 26.7 µM) | 0.25 to 16 µg/mL (≈ 0.417 to 26.7 µM) | 0.25 to 16 µg/mL (≈ 0.417 to 26.7 µM) | 0.25 to 16 µg/mL (≈ 0.417 to 26.7 µM) | 0.25 to 16 µg/mL (≈ 0.417 to 26.7 µM) | 0.25 to 16 µg/mL (≈ 0.417 to 26.7 µM) | – | – | – | C[C@H](n1nnc(CCN2CCN(C(c3ccccc3)c3ccccc3)CC2)n1)[C@](O)(Cn1cncn1)c1ccc(F)cc1F |
| 1 to 16 µg/mL (≈ 1.9 to 30.3 µM) | 1 to 16 µg/mL (≈ 1.9 to 30.3 µM) | 1 to 16 µg/mL (≈ 1.9 to 30.3 µM) | 1 to 16 µg/mL (≈ 1.9 to 30.3 µM) | 1 to 16 µg/mL (≈ 1.9 to 30.3 µM) | 1 to 16 µg/mL (≈ 1.9 to 30.3 µM) | 1 to 16 µg/mL (≈ 1.9 to 30.3 µM) | – | – | – | CC(n1nnc(CCN2CCN(c3ccc(F)cc3)CC2)n1)C(O)(Cn1cncn1)c1ccc(F)cc1F (stereo not drawn) |
| 0.25 to 16 µg/mL (≈ 0.43 to 27.5 µM) | 0.25 to 16 µg/mL (≈ 0.43 to 27.5 µM) | 0.25 to 16 µg/mL (≈ 0.43 to 27.5 µM) | 0.25 to 16 µg/mL (≈ 0.43 to 27.5 µM) | 0.25 to 16 µg/mL (≈ 0.43 to 27.5 µM) | 0.25 to 16 µg/mL (≈ 0.43 to 27.5 µM) | 0.25 to 16 µg/mL (≈ 0.43 to 27.5 µM) | – | – | – | CCCCOc1ccccc1N1CCN(CCc2nnn([C@@H](C)[C@](O)(Cn3cncn3)c3ccc(F)cc3F)n2)CC1 |
| 0.12 to 16 µg/mL (≈ 0.216 to 28.9 µM) | 0.12 to 16 µg/mL (≈ 0.216 to 28.9 µM) | 0.12 to 16 µg/mL (≈ 0.216 to 28.9 µM) | 0.12 to 16 µg/mL (≈ 0.216 to 28.9 µM) | 0.12 to 16 µg/mL (≈ 0.216 to 28.9 µM) | 0.12 to 16 µg/mL (≈ 0.216 to 28.9 µM) | 0.12 to 16 µg/mL (≈ 0.216 to 28.9 µM) | – | – | – | C[C@H](n1nnnc1CCN1CCN(c2ccc([N+](=O)[O-])cc2)CC1)[C@](O)(Cn1cncn1)c1ccc(F)cc1F |
| 1 to 16 µg/mL (≈ 1.85 to 29.7 µM) | 1 to 16 µg/mL (≈ 1.85 to 29.7 µM) | 1 to 16 µg/mL (≈ 1.85 to 29.7 µM) | 1 to 16 µg/mL (≈ 1.85 to 29.7 µM) | 1 to 16 µg/mL (≈ 1.85 to 29.7 µM) | 1 to 16 µg/mL (≈ 1.85 to 29.7 µM) | 1 to 16 µg/mL (≈ 1.85 to 29.7 µM) | – | – | – | COc1ccccc1N1CCN(CCc2nnn(C(C)C(O)(Cn3cncn3)c3ccc(F)cc3F)n2)CC1 (stereo not drawn) |

More lines, now with the values behind:

| SMILES | MIC (Cryptococcus neoformans) | MIC (Nakaseomyces glabratus) | MIC (Candida parapsilosis) | MIC (Pichia kudriavzevii) | MIC (Candida albicans [1]) | MIC (Candida tropicalis) | MIC (Aspergillus niger) | MIC (Candida albicans [2]) | MIC (Aspergillus flavus) | MIC (Fusarium oxysporum) |
| --- | --- | --- | --- | --- | --- | --- | --- | --- | --- | --- |
| CCCCOc1ccccc1N1CCN(CCc2nnnn2C(C)C(O)(Cn2cncn2)c2ccc(F)cc2F)CC1 (stereo not drawn) | 0.5 to 16 µg/mL (≈ 0.86 to 27.5 µM) | 0.5 to 16 µg/mL (≈ 0.86 to 27.5 µM) | 0.5 to 16 µg/mL (≈ 0.86 to 27.5 µM) | 0.5 to 16 µg/mL (≈ 0.86 to 27.5 µM) | 0.5 to 16 µg/mL (≈ 0.86 to 27.5 µM) | 0.5 to 16 µg/mL (≈ 0.86 to 27.5 µM) | 0.5 to 16 µg/mL (≈ 0.86 to 27.5 µM) | – | – | – |
| C[C@H](n1nnnc1CCN1CCN(C(c2ccccc2)c2ccccc2)CC1)[C@](O)(Cn1cncn1)c1ccc(F)cc1F | 0.12 to 16 µg/mL (≈ 0.2 to 26.7 µM) | 0.12 to 16 µg/mL (≈ 0.2 to 26.7 µM) | 0.12 to 16 µg/mL (≈ 0.2 to 26.7 µM) | 0.12 to 16 µg/mL (≈ 0.2 to 26.7 µM) | 0.12 to 16 µg/mL (≈ 0.2 to 26.7 µM) | 0.12 to 16 µg/mL (≈ 0.2 to 26.7 µM) | 0.12 to 16 µg/mL (≈ 0.2 to 26.7 µM) | – | – | – |
| CC(n1nnnc1CCN1CCN(C(c2ccccc2)c2ccccc2)CC1)C(O)(Cn1cncn1)c1ccc(F)cc1F (stereo not drawn) | 0.5 to 16 µg/mL (≈ 0.834 to 26.7 µM) | 0.5 to 16 µg/mL (≈ 0.834 to 26.7 µM) | 0.5 to 16 µg/mL (≈ 0.834 to 26.7 µM) | 0.5 to 16 µg/mL (≈ 0.834 to 26.7 µM) | 0.5 to 16 µg/mL (≈ 0.834 to 26.7 µM) | 0.5 to 16 µg/mL (≈ 0.834 to 26.7 µM) | 0.5 to 16 µg/mL (≈ 0.834 to 26.7 µM) | – | – | – |
| OC(Cn1cncn1)(Cn1nnnc1CCN1CCN(c2ccccc2Cl)CC1)c1ccc(F)cc1F (stereo not drawn) | 0.5 to 16 µg/mL (≈ 0.943 to 30.2 µM) | 0.5 to 16 µg/mL (≈ 0.943 to 30.2 µM) | 0.5 to 16 µg/mL (≈ 0.943 to 30.2 µM) | 0.5 to 16 µg/mL (≈ 0.943 to 30.2 µM) | 0.5 to 16 µg/mL (≈ 0.943 to 30.2 µM) | 0.5 to 16 µg/mL (≈ 0.943 to 30.2 µM) | 0.5 to 16 µg/mL (≈ 0.943 to 30.2 µM) | – | – | – |
| Cc1ccc2c(c1)cc(/C=C/C(=O)c1cc(Br)ccc1O)c1nnnn12 | – | – | – | – | – | – | – | 25 to 100 µg/mL (≈ 61.1 to 244 µM) | 25 to 100 µg/mL (≈ 61.1 to 244 µM) | 25 to 100 µg/mL (≈ 61.1 to 244 µM) |
| OC(Cn1cncn1)(Cn1nnnc1CCN1CCN(C(c2ccccc2)c2ccccc2)CC1)c1ccc(F)cc1F (stereo not drawn) | 0.5 to 16 µg/mL (≈ 0.854 to 27.3 µM) | 0.5 to 16 µg/mL (≈ 0.854 to 27.3 µM) | 0.5 to 16 µg/mL (≈ 0.854 to 27.3 µM) | 0.5 to 16 µg/mL (≈ 0.854 to 27.3 µM) | 0.5 to 16 µg/mL (≈ 0.854 to 27.3 µM) | 0.5 to 16 µg/mL (≈ 0.854 to 27.3 µM) | 0.5 to 16 µg/mL (≈ 0.854 to 27.3 µM) | – | – | – |
| COc1ccc2c(c1)cc(/C=C/C(=O)c1cc(Br)ccc1O)c1nnnn12 | – | – | – | – | – | – | – | 25 to 100 µg/mL (≈ 58.8 to 235 µM) | 25 to 100 µg/mL (≈ 58.8 to 235 µM) | 25 to 100 µg/mL (≈ 58.8 to 235 µM) |
